From patent US7732478B2, “Methods for facilitating metabolic control” (The Trustees of Columbia University in The City of New York, priority 2005, dated 2010)

How the values were obtained:
IL-1β in GCF [1] = conditions: used as an oral rinse; cited from earlier work
circulating TNF = test: Circulating TNF level (blood TNF alpha immunoassay) after ketorolac oral rinse; format: in vivo, human; conditions: oral rinse containing 0.1% Ketorolac twice daily for 6 months; type 2 diabetes and chronic periodontitis subjects
Procedure: Subjects are selected and divided into different groups as described in Examples 1 and 2. An oral rinse containing 0.1% Ketorolac was administered twice daily for 6 months to reduce the level of IL-1β in GCF in the subjects (see, Cavanaugh et al., Coordinate production of PGE2 and IL-1 beta in the gingival crevicular fluid of adults with periodontitis: its relationship to alveolar bone loss and disruption by twice daily treatment with ketorolac tromethamine oral rinse. J. Periodontal Res. 33:75-82, 1998). GCF samples are collected following the procedures of example 3 and the level of IL-1β in GCF is determined as described in example 5. Circulating TNF level is determined by measuring blood TNF level using the TNF alpha immunoassay kit (Assay Designs Inc., Ann Arbor, Mich.) following the manufacturer's instructions.

serum glucose = test: Serum glucose levels as indicator of metabolic control; format: in vivo, human; conditions: Ketorolac treatment, Example 11
Procedure: (§1) Glycated hemoglobin (HbA1c) levels were measured from freshly drawn anticoagulated whole blood using an automated affinity chromatography system (BioRad Micromat II, Hercules, Calif.). Serum glucose was determined by the glucose oxidase method (Roche Diagnostics, Basel, CH). […] The study is performed as described in example 8. HbA1c levels and serum glucose levels, which are used as indicators of metabolic control, are measured as described in example 6.

IL-1β in GCF [2] = test: Level of IL-1β in gingival crevicular fluid (sandwich ELISA) after ketorolac oral rinse; format: in vivo, human; conditions: Ketorolac treatment, Example 11
Text: The clinical evaluation was preceded by collection of GCF, as previously described (Lamster et al., A comparison of 4 methods of data presentation for lysosomal enzyme activity in gingival crevicular fluid. J. Clin. Periodontol., 15:347-52, 1988; Lamster et al., Correlation analysis for clinical and gingival crevicular fluid parameters at anatomically related gingival sites. J. Clin. Periodontol., 18:272-77, 1991), from the mesiolingual and mesiobuccal surfaces of the first molar tooth in each quadrant. Where the first molar was absent, the second molar was sampled. If both the first and second molar were missing, the second premolar was sampled. If there were no posterior teeth in a quadrant, no sample was taken from that quadrant.
Briefly, teeth were air-dried and isolated with cotton rolls, supragingival plaque was gently removed, and GCF was sampled with precut methylcellulose filter paper strips for 30 sec. Strips were measured for fluid volume with a calibrated Periotron 6000 (Interstate Drug Exchange, Amityville, N.Y.), then removed to separate microcentrifuge tubes containing 50 μl of phosphate-buffered saline (Tween 20). […] Following elution, each GCF sample was analyzed separately.
GCF samples were analyzed for IL-1β using a commercially-available enzyme-linked immunosorbant assay, Multikine Kit (Cistron Biotechnology, Pine Brook, N.J.). […]

HbA1c = HbA1c levels as indicator of metabolic control; format: in vivo, human; conditions: Ketorolac treatment, Example 11
Procedure: as §1

[3] = system: circulating levels of TNF-α, and IL-6; conditions: infusion of glutathione; healthy and impaired glucose tolerance individuals; cited from earlier work

SMILES | GCF IL-1β in the oral cavity (IL-1β in GCF [1]) | level of serum TNF (circulating TNF) | serum glucose levels (serum glucose) | levels of IL-1β in GCF (IL-1β in GCF [2]) | HbA1c levels (HbA1c) | circulating cytokines following a glucose bolus administration [3]
O=C(c1ccccc1)c1ccc2n1CCC2C(=O)O (stereo not drawn) [Ketorolac] | reduce GCF IL-1β | significant reduction | decline | reducing the levels of IL-1β in GCF | decline of HbA1c levels | –
N[C@@H](CCC(=O)N[C@@H](CS)C(=O)NCC(=O)O)C(=O)O [glutathione] | – | – | – | – | – | no increase of cytokines
